Experimental data as given in patent publication US11896592B2, “Certain triazolopyridines and triazolopyrazines, compositions thereof and methods of use therefor” (Hutchison Medipharma Limited, priority 2009, dated 2024).
Like-named read-outs stand apart in the source and are kept apart here.

Target: T1, Recombinant human Met (c-Met) (Homo sapiens, UniProt P08581)
T1 construct: purchased Invitrogen PV3143
Test: Inhibition of c-Met kinase activity using Transcreener FP assay
Format: biochemical
Conditions: Poly E4Y substrate, 28° C. 45 min
Experimental: Compound dilution: dilute test articles to 5 folds of the testing concentration using 20% DMSO.
The mixture is kept on ice until use;
Prepare ATP standard curve stock as following:
3. Enzymatic reaction: in 96-well reaction plate
Add 5 μL of test article or 5 μL of 20% DMSO or 5 μL of 500 mM EDTA;
Add 10 μL of Enzyme/Substrate stock;
Add 10 μL of ATP Diluent to begin the enzyme reaction and mix on plate shaker;
Add 5 μL of 20% DMSO, 10 μL of assay buffer and 10 μL of ATP standard curve stock into standard curve wells;
Gently shake at 28° C. for 45 min.
4. Stop reaction and detect ADP
Prepare Detection Mix: According to the procedures described in the Assay kit, Alexa633 tracer, ADP antibody and stop & detect buffer were added into H2O and mixed thoroughly. Prepare Tracer Only control: According to the procedures described in the Assay kit, ADP Alexa633 tracer and stop & detect buffer were added to H2O and mixed throughly.
Prepare No Tracer control: According to the procedures described in the Assay kit, the stop & detect buffer was diluted with H2O;
Add 25 μL of detection mix, Tracer Only control and No Tracer control into corresponding wells, respectively;
The reaction plate was gently shaken at 28° C. for 1 h;
Florescence polarization (FP) was measured on TECAN F500. Excitation wavelength: 610 nm, Emission wavelength: 670 nm.
Compound well [ADP] represents the ADP concentration of the compound well. Positive control well [ADP] represents the ADP concentration of the 20% DMSO well. Conversion of mP value to ADP concentration is based on the formula which is determined by standard curve.
IC50: calculated using XL-Fit 2.0 software.

[1] = read-out: IC50, inhibition of c-Met kinase activity

T1 sequence (P08581 956-1390 limits assumed): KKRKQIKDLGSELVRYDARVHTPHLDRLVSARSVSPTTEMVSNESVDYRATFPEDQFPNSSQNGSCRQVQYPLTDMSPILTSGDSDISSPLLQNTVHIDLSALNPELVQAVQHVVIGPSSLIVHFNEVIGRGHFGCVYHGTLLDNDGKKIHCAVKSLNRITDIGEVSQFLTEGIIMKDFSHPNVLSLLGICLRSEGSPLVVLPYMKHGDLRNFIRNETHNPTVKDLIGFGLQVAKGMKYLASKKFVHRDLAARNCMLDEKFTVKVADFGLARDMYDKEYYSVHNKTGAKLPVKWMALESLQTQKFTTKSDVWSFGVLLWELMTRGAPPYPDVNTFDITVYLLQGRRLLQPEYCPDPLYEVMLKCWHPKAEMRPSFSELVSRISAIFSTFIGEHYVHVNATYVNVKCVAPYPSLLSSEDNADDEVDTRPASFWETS

In the case of COCc1cnc2ccc(C(C)n3nnc4ncc(-c5cnn(C)c5)nc43)cn12 (racemic) [Compound 318, 1-(1-(3-(methoxymethyl)imidazo[1,2-a]pyridin-6-yl)ethyl)-6-(1-methyl-1H-pyrazol-4-yl)-1H-[1,2,3]triazolo[4,5-b]pyrazine], the IC50 [1] is reported as 1 to 100 nM.
In the case of CC(c1ccc2nccn2c1)n1nnc2ncc(-c3cnn(C)c3)nc21 (racemic) [Compound 331], the IC50 (IC50, inhibition of c-Met kinase activity) is reported as 1 to 100 nM.
For CC(c1ccc2ncccc2c1)n1nnc2ccc(-c3cnn(CCO)c3)nc21 (racemic) [Compound 332], the IC50 [1] was 1 to 100 nM.
Cn1cc(-c2cnc3nnn(Cc4c[nH]c5ncccc45)c3n2)cn1 [Compound 1, 1-((1H-Pyrrolo[2,3-b]pyridin-3-yl)methyl)-6-(1-methyl-1H-pyrazol-4-yl)-1H-[1,2,3]-triazolo[4,5-b]pyrazine] gave an IC50 [1] of 1 to 100 nM.
With CC1N=CC(c2cnc3nnn(Cc4cc5cccnc5s4)c3n2)=N1 (stereo not shown) [Compound 2] the IC50 [1] was 100 to 1000 nM.
Work on OCCn1cc(-c2cnc3nnn(Cc4cc5cccnc5s4)c3n2)cn1 [Compound 5] yielded an IC50 [1] of 100 to 1000 nM.
c1csc(-c2cnc3nnn(Cc4cc5cccnc5s4)c3n2)c1 [Compound 6] gave an IC50 [1] of 100 to 1000 nM.
CCn1cc(-c2cnc3nnn(Cc4ccc5nccn5c4)c3n2)cn1 [Compound 8] showed an IC50 [1] of 1 to 100 nM.
With Cn1cc(-c2cnc3nnn(Cc4ccc5ncsc5c4)c3n2)cn1 [Compound 11] the IC50 [1] was 1 to 100 nM.
With OCCn1cc(-c2cnc3nnn(Cc4ccc5ncsc5c4)c3n2)cn1 [Compound 12] the IC50 [1] was 1 to 100 nM.
With OCCn1cc(-c2cnc3nnn(Cc4cc5[nH]ncc5s4)c3n2)cn1 [Compound 13] the IC50 [1] was 1 to 100 nM.
COCCn1cc(-c2cnc3nnn(Cc4n[nH]c5ncccc45)c3n2)cn1 [Compound 15] gave an IC50 [1] of 1 to 100 nM.
c1nn(C2CCNCC2)cc1-c1cnc2nnn(Cc3cc4[nH]ncc4s3)c2n1 [Compound 17] was tested, and the IC50 [1] was 100 to 1000 nM.
c1cc2sc(Cn3nnc4ncc(-c5cnn(C6CCNCC6)c5)nc43)cc2cn1 [Compound 18] showed an IC50 [1] of 100 to 1000 nM.
Work on CC(c1ccc2ncsc2c1)n1nnc2ncc(-c3cnn(C)c3)nc21 (stereo not shown) [Compound 19] yielded an IC50 [1] of 1 to 100 nM.
For CC(c1ccc2ncsc2c1)n1nnc2ncc(-c3cnn(CCO)c3)nc21 (stereo not shown) [Compound 20], the IC50 [1] was 1 to 100 nM.
CC(c1cc2cnccc2s1)n1nnc2ncc(-c3cnn(CCO)c3)nc21 (stereo not shown) [Compound 21] gave an IC50 [1] of 1 to 100 nM.
For c1cc2sc(Cn3nnc4ncc(-c5cnn(C6CCOCC6)c5)nc43)cc2cn1 [Compound 22], the IC50 [1] was 100 to 1000 nM.
With COCCn1cc(-c2cnc3nnn(Cc4cc5cnccc5s4)c3n2)cn1 [Compound 23] the IC50 [1] was 100 to 1000 nM.
With O=C(Cn1cc(-c2cnc3nnn(Cc4ccc5ncsc5c4)c3n2)cn1)NC1CC1 [Compound 24] the IC50 [1] was 1 to 100 nM.
With CCn1cc(-c2cnc3nnn(Cc4cc5[nH]ncc5s4)c3n2)cn1 [Compound 25] the IC50 [1] was 1 to 100 nM.
Work on CC(C)n1cc(-c2cnc3nnn(Cc4cc5[nH]ncc5s4)c3n2)cn1 [Compound 26] yielded an IC50 [1] of 1 to 100 nM.
N#CCn1cc(-c2cnc3nnn(Cc4cc5[nH]ncc5s4)c3n2)cn1 [Compound 27] gave an IC50 [1] of 1 to 100 nM.
In the case of OCCn1cc(-c2cnc3nnn(Cc4csc5ncccc45)c3n2)cn1 [Compound 30], the IC50 [1] is reported as 100 to 1000 nM.
With CC(C)n1cc(-c2cnc3nnn(Cc4ccc5nccn5c4)c3n2)cn1 [Compound 34] the IC50 [1] was 1 to 100 nM.
N#CCn1cc(-c2cnc3nnn(Cc4ccc5nccn5c4)c3n2)cn1 [Compound 35] gave an IC50 [1] of 1 to 100 nM.
CCn1cc(-c2cnc3nnn(Cc4cc5c(cnn5CC)s4)c3n2)cn1 [Compound 37] was tested, and the IC50 [1] was 100 to 1000 nM.
In the case of CCn1ncc2sc(Cn3nnc4ncc(-c5cnn(CCO)c5)nc43)cc21 [Compound 38], the IC50 [1] is reported as 100 to 1000 nM.
Work on CCn1cc(-c2cnc3nnn(Cc4csc5ncccc45)c3n2)cn1 [Compound 41] yielded an IC50 [1] of 100 to 1000 nM.
For FC(F)(F)Cn1cc(-c2cnc3nnn(Cc4cc5[nH]ncc5s4)c3n2)cn1 [Compound 42], the IC50 [1] was 1 to 100 nM.
c1n[nH]cc1-c1cnc2nnn(Cc3cc4[nH]ncc4s3)c2n1 [Compound 44] showed an IC50 [1] of 1 to 100 nM.
COCCn1cc(-c2cnc3nnn(Cc4cc5[nH]ncc5s4)c3n2)cn1 [Compound 45] showed an IC50 [1] of 1 to 100 nM.
For c1cn2cc(Cn3nnc4ncc(-c5cnn(C6CCNCC6)c5)nc43)ccc2n1 [Compound 46], the IC50 [1] was 1 to 100 nM.
Work on CCCn1cc(-c2cnc3nnn(Cc4ccc5nccn5c4)c3n2)cn1 [Compound 47] yielded an IC50 [1] of 1 to 100 nM.
CCn1cc(-c2cnc3nnn(Cc4n[nH]c5ncccc45)c3n2)cn1 [Compound 49] gave an IC50 [1] of 1 to 100 nM.
Work on FC(F)(F)Cn1cc(-c2cnc3nnn(Cc4ccc5ncnn5c4)c3n2)cn1 [Compound 52] yielded an IC50 [1] of 1 to 100 nM.
For COCCn1cc(-c2cnc3nnn(Cc4ccc5ncnn5c4)c3n2)cn1 [Compound 53], the IC50 [1] was 100 to 1000 nM.
Work on OCCn1cc(-c2cnc3nnn(Cc4ccc5ncnn5c4)c3n2)cn1 [Compound 54] yielded an IC50 [1] of 1 to 100 nM.
c1nc2ccc(Cn3nnc4ncc(-c5cnn(C6CCOCC6)c5)nc43)cn2n1 [Compound 55] gave an IC50 [1] of 100 to 1000 nM.
Work on COc1ccc(-c2cnc3nnn(Cc4ccc5nccn5c4)c3n2)cc1 [Compound 57] yielded an IC50 [1] of 1 to 100 nM.
For COCCn1cc(-c2cnc3nnn(Cc4ccc5nccn5c4)c3n2)cn1 [Compound 58], the IC50 [1] was 1 to 100 nM.
COc1ccc(-c2cnc3nnn(Cc4ccc5ncnn5c4)c3n2)cc1 [Compound 59] was tested, and the IC50 [1] was 1 to 100 nM.
Work on OCCn1cc(-c2ccc3nnn(Cc4ccc5ncccc5c4)c3n2)cn1 [Compound 61] yielded an IC50 [1] of 1 to 100 nM.
In the case of Nc1ccc(-c2ccc3nnn(Cc4ccc5ncccc5c4)c3n2)cn1 [Compound 62], the IC50 [1] is reported as 1 to 100 nM.
c1cnc2ccc(Cn3nnc4ccc(-c5ccc(N6CCOCC6)nc5)nc43)cc2c1 [Compound 63] was tested, and the IC50 [1] was 1 to 100 nM.
In the case of c1c[nH]c(-c2ccc3nnn(Cc4ccc5ncccc5c4)c3n2)c1 [Compound 64], the IC50 [1] is reported as 100 to 1000 nM.
CCOC(=O)Cn1cc(-c2ccc3nnn(Cc4ccc5ncccc5c4)c3n2)cn1 [Compound 65] was tested, and the IC50 [1] was 1 to 100 nM.
Molecule O=C(O)Cn1cc(-c2ccc3nnn(Cc4ccc5ncccc5c4)c3n2)cn1 [Compound 66] has an IC50 [1] of 100 to 1000 nM.
In the case of COc1ccc(-c2ccc3nnn(Cc4ccc5ncccc5c4)c3n2)cn1 [Compound 70], the IC50 [1] is reported as 1 to 100 nM.
With Cn1cc(-c2ccc3nnn(Cc4cc5cnccc5s4)c3n2)cn1 [Compound 71] the IC50 [1] was 100 to 1000 nM.
For Cn1cc(-c2ccc3nnn(Cc4ccc5ncsc5c4)c3n2)cn1 [Compound 72], the IC50 [1] was 1 to 100 nM.
OCCn1cc(-c2ccc3nnn(Cc4ccc5ncsc5c4)c3n2)cn1 [Compound 73] was tested, and the IC50 [1] was 100 to 1000 nM.
OCCn1cc(-c2ccc3nnn(Cc4cc5cnccc5s4)c3n2)cn1 [Compound 74] gave an IC50 [1] of 100 to 1000 nM.
In the case of CNc1ccc(-c2ccc3nnn(Cc4ccc5ncccc5c4)c3n2)cn1 [Compound 76], the IC50 [1] is reported as 1 to 100 nM.
In the case of C[C@@H](c1ccc2ncccc2c1)n1nnc2ccc(-c3cnn(CCO)c3)nc21 [Compound 77], the IC50 [1] is reported as 1 to 100 nM.
C[C@H](c1ccc2ncccc2c1)n1nnc2ccc(-c3cnn(CCO)c3)nc21 [Compound 78] was tested, and the IC50 [1] was 100 to 1000 nM.
Molecule Cc1ccc(-c2ccc3nnn(Cc4ccc5ncccc5c4)c3n2)cn1 [Compound 79] has an IC50 [1] of 100 to 1000 nM.
c1cnc2ccc(Cn3nnc4ccc(-n5cccn5)nc43)cc2c1 [Compound 80] was tested, and the IC50 [1] was 100 to 1000 nM.
c1cnc2ccc(Cn3nnc4ccc(-c5cc[nH]n5)nc43)cc2c1 [Compound 81] was tested, and the IC50 [1] was 1 to 100 nM.
Work on COCCNc1ccc(-c2ccc3nnn(Cc4ccc5ncccc5c4)c3n2)cn1 [Compound 82] yielded an IC50 [1] of 1 to 100 nM.
CNC(=O)c1ccc(-c2ccc3nnn(Cc4ccc5ncccc5c4)c3n2)cn1 [Compound 83] was tested, and the IC50 [1] was 1 to 100 nM.
In the case of CS(=O)(=O)Nc1ccc(-c2ccc3nnn(Cc4ccc5ncccc5c4)c3n2)cc1 [Compound 84], the IC50 [1] is reported as 1 to 100 nM.
CS(=O)(=O)Nc1cccc(-c2ccc3nnn(Cc4ccc5ncccc5c4)c3n2)c1 [Compound 85] was tested, and the IC50 [1] was 1 to 100 nM.
OCCn1cc(-c2ccc3nnn(Cc4c[nH]c5ncccc45)c3n2)cn1 [Compound 86] showed an IC50 [1] of 1 to 100 nM.
Molecule c1csc(-c2ccc3nnn(Cc4ccc5ncccc5c4)c3n2)c1 [Compound 87] has an IC50 [1] of 1 to 100 nM.
In the case of COc1cccc(-c2ccc3nnn(Cc4ccc5ncccc5c4)c3n2)c1 [Compound 88], the IC50 [1] is reported as 1 to 100 nM.
CS(=O)(=O)Nc1ccc(-c2ccc3nnn(Cc4ccc5ncccc5c4)c3n2)cn1 [Compound 90] gave an IC50 [1] of 1 to 100 nM.
Work on CC(=O)Nc1ccc(-c2ccc3nnn(Cc4ccc5ncccc5c4)c3n2)cn1 [Compound 91] yielded an IC50 [1] of 1 to 100 nM.
CNCCCn1cc(-c2ccc3nnn(Cc4ccc5ncccc5c4)c3n2)cn1 [Compound 92] was tested, and the IC50 [1] was 100 to 1000 nM.
With COCCn1cc(-c2ccc3nnn(Cc4ccc5ncccc5c4)c3n2)cn1 [Compound 93] the IC50 [1] was 100 to 1000 nM.
Work on c1cnc2ccc(Cn3nnc4ccc(-c5cnn(C6CCNCC6)c5)nc43)cc2c1 [Compound 94] yielded an IC50 [1] of 100 to 1000 nM.
In the case of CCn1cc(-c2ccc3nnn(Cc4ccc5ncccc5c4)c3n2)cn1 [Compound 95], the IC50 [1] is reported as 1 to 100 nM.
Work on COCCOc1cccc(-c2ccc3nnn(Cc4ccc5ncccc5c4)c3n2)c1 [Compound 96] yielded an IC50 [1] of 100 to 1000 nM.
Work on COCCOc1ccc(-c2ccc3nnn(Cc4ccc5ncccc5c4)c3n2)cc1 [Compound 97] yielded an IC50 [1] of 1 to 100 nM.
For CC(=O)OCCn1cc(-c2ccc3nnn(Cc4ccc5ncccc5c4)c3n2)cn1 [Compound 98], the IC50 [1] was 100 to 1000 nM.
With COCCOc1ccc(-c2ccc3nnn(Cc4ccc5ncccc5c4)c3n2)cn1 [Compound 99] the IC50 [1] was 100 to 1000 nM.
